Laboratory results published in patent publication US9956197B2 (priority 2013, dated 2018).
Marks after values point to notes of the source that are not given here.

Experiments:
[1] = test system: Picrotoxin (PIC) induced clonic seizure; assay: animal or person; format: in vivo, ICR mice
[2] = test system: ACTH-refractory infantile spasm (behavioral spasms); assay: animal or person; format: in vivo, Sprague-Dawley rats; conditions: for inhibition in vivo at 60 mg/kg: Rattus norvegicus, ip, read-out: ACTH-refractory IS (ip) Protection %, percentage of activity compared to the vehicle only; for ACTH-refractory IS (ip) Peak Time: rat, in vivo
[3] = test system: Lithium-pilocarpine induced status epilepticus; parameters: species or system Sprague-Dawley rats; conditions: in vivo
[4] = test system: PTZ (Pentylenetetrazol) induced clonic seizure; assay: animal or person; format: in vivo, ICR mice; conditions: for PTZ test (ip) in Mice Peak Time / PTZ test (ip) in Mice Protection %: mouse, in vivo
[5] = test system: PTZ (Pentylenetetrazol) induced clonic seizure; parameters: species or system SD rats; conditions: rat, in vivo
[6] = test system: Lithium-pilocarpine induced status epilepticus; parameters: species or system Sprague-Dawley rats; conditions: in vivo; remark: listed apart in the source
[7] = Mus musculus, ip, read-out: PIC (ip) percentage of activity compared to the vehicle only

Compound	inhibition in vivo at 60 mg/kg [2] [%]	ACTH-refractory IS (ip) Peak Time [2] [h]	responders at 50 mg/kg [1, 7] [%]	Intervention (rat, iv) Protection % [6]	PTZ test (ip) in Mice Protection % [4]	further results
CC(OC(N)=O)C(O)c1ccccc1Cl (racemic) [Compound 3, 1-(2-chlorophenyl)-1-hydroxypropyl-2-carbamate]	34	3				responders at 10 mg/kg [1, 7]: 50%; Prevention (rat, ip) Peak Time [3]: 0.5 h; PTZ test (ip) in Mice Peak Time ([4]; ip): 0.5 h; PTZ test (ip) in Rats Peak Time [5]: 18.9 (*0.5) h
CCC(OC(N)=O)C(O)c1ccccc1Cl (racemic) [Compound 8, 1-(2-chlorophenyl)-1-hydroxybutyl-2-carbamate]			33.3	^a46 (50%)		
CCCCC(OC(N)=O)C(O)c1ccccc1Cl (racemic) [Compound 14, 1-(2-chlorophenyl)-1-hydroxyhexyl-2-carbamate]			16.7		^a20.4 (16.7%)	
CNC(=O)OC(C)C(O)c1ccccc1Cl (racemic) [Compound 29, 1-(2-chlorophenyl)-1-hydroxypropyl-2-N-methylcarbamate]					^a20.4 (33.3%)	
CCCNC(=O)OC(C)C(O)c1ccccc1Cl (racemic) [Compound 30, 1-(2-chlorophenyl)-1-hydroxypropyl-2-N-propylcarbamate]			16.7		^a20.4 (33.3%)	
CC(C)NC(=O)OC(C)C(O)c1ccccc1Cl (racemic) [Compound 31, 1-(2-chlorophenyl)-1-hydroxypropyl-2-N-isopropylcarbamate]			16.7	^a46 (100%)	^a20.4 (83.3%)	
CC(OC(=O)NC1CC1)C(O)c1ccccc1Cl (racemic) [Compound 32, 1-(2-chlorophenyl)-1-hydroxypropyl-2-N-cyclopropylcarbamate]				^a46 (100%)	^a20.4 (16.7%)	
C[C@@H](OC(N)=O)[C@H](O)c1ccccc1Cl [Compound 2, 1-(2-chlorophenyl)-(R)-1-hydroxypropyl-(R)-2-carbamate]	65.9	1	16.7	^a46 (50%)		Prevention (rat, ip) Peak Time [3]: 0.5 h; PTZ test (ip) in Mice Peak Time ([4]; ip): 0.5 h; PTZ test (ip) in Rats Peak Time [5]: 51.9 (*1) h
C[C@@H](OC(N)=O)[C@@H](O)c1ccccc1Cl [Compound 4, 1-(2-chlorophenyl)-(S)-1-hydroxypropyl-(R)-2-carbamate]	24.3	3		^a46 (100%)		responders at 30 mg/kg [1, 7]: 100%; PTZ test (ip) in Mice Peak Time ([4]; ip): 0.5 h
C[C@H](OC(N)=O)[C@H](O)c1ccccc1Cl [Compound 5, 1-(2-chlorophenyl)-(R)-1-hydroxypropyl-(S)-2-carbamate]						PTZ test (ip) in Mice Peak Time ([4]; ip): 0.5 h
CC[C@H](OC(N)=O)[C@@H](O)c1ccccc1Cl [Compound 6, 1-(2-chlorophenyl)-(S)-1-hydroxybutyl-(S)-2-carbamate]	76.2	3	66.7	^a46 (100%)		PTZ test (ip) in Mice Peak Time ([4]; ip): 0.5 h
CC(C)[C@H](OC(N)=O)[C@@H](O)c1ccccc1Cl [Compound 9, 1-(2-chlorophenyl)-(S)-1-hydroxy-3-methyl-butyl-(S)-2-carbamate]			16.7		^a20.4 (33.3%)	
CCCC[C@H](OC(N)=O)[C@@H](O)c1ccccc1Cl [Compound 12, 1-(2-chlorophenyl)-(S)-1-hydroxyhexyl-(S)-2-carbamate]			16.7		^a20.4 (33.3%)	
CCCC[C@@H](OC(N)=O)[C@H](O)c1ccccc1Cl [Compound 13, 1-(2-chlorophenyl)-(R)-1-hydroxyhexyl-(R)-2-carbamate]			16.7			
CNC(=O)O[C@@H](C)[C@@H](O)c1ccccc1Cl [Compound 15, 1-(2-chlorophenyl)-(S)-1-hydroxypropyl-(S)-2-N-methylcarbamate]	67.4	2	50	^a46 (100%)		PTZ test (ip) in Rats Protection % [5]: ^b25 (33.3%)
CCCNC(=O)O[C@@H](C)[C@@H](O)c1ccccc1Cl [Compound 16, 1-(2-chlorophenyl)-(S)-1-hydroxypropyl-(S)-2-N-propylcarbamate]				^a46 (100%)		PTZ test (ip) in Rats Protection % [5]: ^b30 (33.3%)

Compound	inhibition in vivo at 60 mg/kg [2] [%]	ACTH-refractory IS (ip) Peak Time [2] [h]	responders at 50 mg/kg [1, 7] [%]	Intervention (rat, iv) Protection % [6]	PTZ test (ip) in Mice Protection % [4]	further results
C[C@H](OC(=O)NC1CC1)[C@@H](O)c1ccccc1Cl [Compound 18, 1-(2-chlorophenyl)-(S)-1-hydroxypropyl-(R)-2-N-cyclopropylcarbamate]				^a46 (66.7%)		PTZ test (ip) in Rats Protection % [5]: ^b30 (16.7%)
CCCNC(=O)O[C@H](C)[C@H](O)c1ccccc1Cl [Compound 23, 1-(2-chlorophenyl)-(R)-1-hydroxypropyl-(R)-2-N-propylcarbamate]			16.7	^a46 (100%)		responders at 20.4 mg/kg ([4]; Mus musculus, ip, read-out: PTZ test (ip) in Mice Protection %): 50%
C[C@@H](OC(=O)NC1CC1)[C@H](O)c1ccccc1Cl [Compound 25, 1-(2-chlorophenyl)-(R)-1-hydroxypropyl-(R)-2-N-cyclopropylcarbamate]				^a46 (100%)	^a20.4 (66.7%)	
C[C@H](OC(N)=O)[C@@H](O)c1ccc(Cl)cc1Cl [Compound 36, 1-(2,4-dichlorophenyl)-(S)-1-hydroxypropyl-(S)-2-carbamate]	37.5	3	50		^a20.4 (33.3%)	
C[C@H](OC(N)=O)[C@@H](O)c1c(Cl)cccc1Cl [Compound 37, 1-(2,6-dichlorophenyl)-(S)-1-hydroxypropyl-(S)-2-carbamate]	83.8	3		^a46 (100%)		ED50 ([1]; Mus musculus, ip, read-out: PIC (ip) ED50): 23.4 mg/kg; PIC (ip) Peak Time ([1]; mice): 0.25 h; PTZ test (ip) in Mice Peak Time ([4]; ip): 0.25 h
C[C@H](OC(N)=O)[C@@H](O)c1cccc(Cl)c1Cl [Compound 38, 1-(2,3-dichlorophenyl)-(S)-1-hydroxypropyl-(S)-2-carbamate]			50	^a46 (50%)		
CC[C@H](OC(N)=O)[C@@H](O)c1ccc(Cl)cc1Cl [Compound 39, 1-(2,4-dichlorophenyl)-(S)-1-hydroxybutyl-(S)-2-carbamate]			66.7			PTZ test (ip) in Mice Peak Time ([4]; ip): 0.5 h
CC[C@H](OC(N)=O)[C@@H](O)c1c(Cl)cccc1Cl [Compound 40, 1-(2,6-dichlorophenyl)-(S)-1-hydroxybutyl-(S)-2-carbamate]			66.6	^a46 (100%)	^a20.4 (33.3%)	
CCCC[C@H](OC(N)=O)[C@@H](O)c1ccc(Cl)cc1Cl [Compound 43, 1-(2,4-dichlorophenyl)-(S)-1-hydroxyhexyl-(S)-2-carbamate]			16.6			PTZ test (ip) in Rats Protection % [5]: ^b25 (33.3%)
CCCC[C@H](OC(N)=O)[C@@H](O)c1c(Cl)cccc1Cl [Compound 44, 1-(2,6-dichlorophenyl)-(S)-1-hydroxyhexyl-(S)-2-carbamate]			16.6		^a20.4 (33.3%)	
C[C@@H](OC(N)=O)[C@H](O)c1ccc(Cl)cc1Cl [Compound 45, 1-(2,4-dichlorophenyl)-(R)-1-hydroxypropyl-(R)-2-carbamate]				^a46 (33.3%)	^a20.4 (16.7%)	PTZ test (ip) in Rats Protection % [5]: ^b50 (16.7%)
C[C@@H](OC(N)=O)[C@H](O)c1c(Cl)cccc1Cl [Compound 46, 1-(2,6-dichlorophenyl)-(R)-1-hydroxypropyl-(R)-2-carbamate]	78	3	33.3	^a46 (50%)		
C[C@@H](OC(N)=O)[C@H](O)c1cccc(Cl)c1Cl [Compound 47, 1-(2,3-dichlorophenyl)-(R)-1-hydroxypropyl-(R)-2-carbamate]	91	3				
C[C@H](OC(N)=O)[C@@H](O)c1ccccc1F [Compound 63, 1-(2-fluorophenyl)-(S)-1-hydroxypropyl-(S)-2-carbamate]				^a46 (50%)		responders at 60 mg/kg [1, 7]: 33.3%; Prevention (rat, ip) Peak Time [3]: 0.25 h
C[C@H](OC(N)=O)[C@@H](O)c1ccccc1I [Compound 65, 1-(2-iodophenyl)-(S)-1-hydroxypropyl-(S)-2-carbamate]	92.1	3		^a46 (100%)	^a20.4 (100%)	PIC (ip) percentage of activity compared to the vehicle only ([1]; mice, injection amount 50 mg/kg): 50^a (100%); Prevention (rat, ip) Peak Time [3]: 2 h
CC[C@H](OC(N)=O)[C@@H](O)c1ccccc1I [Compound 67, 1-(2-iodophenyl)-(S)-1-hydroxybutyl-(S)-2-carbamate]	81.1	2	83.3	^a46 (100%)		Prevention (rat, ip) Peak Time [3]: 0.5 h; PTZ test (ip) in Mice Peak Time ([4]; ip): 0.5 h; PTZ test (ip) in Rats Protection % [5]: ^b30 (33.3%)
